Results: article PMC6409085, “Three odorant-binding proteins are involved in the behavioral response of Sogatella furcifera to rice plant volatiles” (PeerJ, 2019)
pIC50: −log10 of the molar value. “And” between values parts separate entries of the source, which are not always exact repeats. Equal values may be shown once.

Legend:
SfurOBP1 = SfurOBP1 (Sogatella furcifera, UniProt V5T8N5); experiment: biochemical; format: binding; details: for Fluorescence competitive binding assay, fluorescence intensity: OBP1, three replicate columns
SfurOBP1, sequence (V5T8N5 entry or part of it): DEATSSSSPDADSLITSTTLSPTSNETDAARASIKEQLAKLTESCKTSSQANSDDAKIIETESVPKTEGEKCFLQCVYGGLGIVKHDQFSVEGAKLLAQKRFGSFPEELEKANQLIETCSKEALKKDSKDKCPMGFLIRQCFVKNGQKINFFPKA
Procedure, shortened: (§1)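 In 50 mM Tris-HCl pH 7.4, odorants displace 1-NPN (2.0 µM) from 2.0 µM protein. Emission at 390–490 nm under 337 nm excitation is measured 2 min after competitor addition, in triplicate. Ki is obtained from IC50 and the 1-NPN dissociation constant.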

SfurOBP11 = SfurOBP11 (Sogatella furcifera, UniProt V5T6E3); experiment: biochemical; format: binding
SfurOBP11, sequence (V5T6E3 entry or part of it): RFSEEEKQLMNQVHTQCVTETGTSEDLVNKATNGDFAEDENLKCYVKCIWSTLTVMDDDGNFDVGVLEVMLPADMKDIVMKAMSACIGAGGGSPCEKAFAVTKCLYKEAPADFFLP
Procedure, shortened: as §1

SfurOBP2 = SfurOBP2 (Sogatella furcifera, UniProt V5T759); experiment: biochemical; format: binding
SfurOBP2, sequence (V5T759 entry or part of it): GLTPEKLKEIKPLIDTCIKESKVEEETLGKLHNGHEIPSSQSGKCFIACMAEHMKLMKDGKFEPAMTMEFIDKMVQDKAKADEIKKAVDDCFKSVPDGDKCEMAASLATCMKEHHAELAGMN
Procedure, shortened: as §1

SfurOBP3 = SfurOBP3 (Sogatella furcifera, UniProt V5T818); experiment: biochemical; format: binding; details: for Fluorescence competitive binding assay, fluorescence intensity: OBP3, three replicate columns
SfurOBP3, sequence (V5T818 entry or part of it): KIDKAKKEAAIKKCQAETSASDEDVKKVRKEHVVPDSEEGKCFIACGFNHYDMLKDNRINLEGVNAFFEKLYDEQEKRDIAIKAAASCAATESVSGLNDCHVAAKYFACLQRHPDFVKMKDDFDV
Procedure, shortened: as §1

S. furcifera adults = experiment: Y-tube olfactometer behavioral trials; format: in vivo, Sogatella furcifera; details: odorant 50 µL/L vs hexane
Procedure, shortened: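 Single S. furcifera adults (2 days post-emergence, starved 0.5 h) chose between odorant (100 µL of 50 µL/L on filter paper) and hexane control in a glass Y-tube, charcoal-filtered humidified air 300 mL/min per arm, 25 ± 1 °C, 50% RH. Choice scored if insect passed half an arm and stayed >1 min within 10 min; 45 insects per compound, chi-squared test.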

Fluorescence competitive binding assay, fluorescence intensity (SfurOBP1; ligand concentration 2 (μM)): 5574 and 5550 and 5238 | Fluorescence competitive binding assay, fluorescence intensity (SfurOBP1; ligand concentration 4 (μM)): 4710 and 5782 and 5020 | Fluorescence competitive binding assay, fluorescence intensity (SfurOBP1; ligand concentration 6 (μM)): 5308 and 5201 and 5270 | Fluorescence competitive binding assay, fluorescence intensity (SfurOBP1; ligand concentration 8 (μM)): 4498 and 4902 and 5186 | Fluorescence competitive binding assay, fluorescence intensity (SfurOBP1; ligand concentration 10 (μM)): 4649 and 5445 and 5409 | Fluorescence competitive binding assay, fluorescence intensity (SfurOBP1; ligand concentration 12 (μM)): 5039 and 5542 and 4835 | Fluorescence competitive binding assay, fluorescence intensity (SfurOBP1; ligand concentration 14 (μM)): 5190 and 5205 and 6069 | Fluorescence competitive binding assay, fluorescence intensity (SfurOBP1; ligand concentration 16 (μM)): 4320 and 5267 and 4703 | Fluorescence competitive binding assay, fluorescence intensity (SfurOBP1; ligand concentration 18 (μM)): 5435 and 5537 and 6009 | Fluorescence competitive binding assay, fluorescence intensity (SfurOBP1; ligand concentration 20 (μM)): 6807 and 4924 and 6337 | pIC50 (SfurOBP1; SfurOBP1, protein and 1-NPN both 2.0 µM, competitor 2-20 µM, read-out: IC50): < 4.70 | pIC50 (SfurOBP11; SfurOBP11, protein and 1-NPN both 2.0 µM, competitor 2-20 µM, read-out: IC50): < 4.70 | Fluorescence intensity, fluorescence competitive binding assay, OBP11 (SfurOBP11; ligand concentration 2, replicate 1): 26535 | Fluorescence intensity, fluorescence competitive binding assay, OBP11 (SfurOBP11; ligand concentration 2, replicate 2): 26162 | Fluorescence intensity, fluorescence competitive binding assay, OBP11 (SfurOBP11; ligand concentration 2, replicate 3): 26541 | Fluorescence intensity, fluorescence competitive binding assay, OBP11 (SfurOBP11; ligand concentration 4, replicate 1): 25394 | Fluorescence intensity, fluorescence competitive binding assay, OBP11 (SfurOBP11; ligand concentration 4, replicate 2): 26325 | Fluorescence intensity, fluorescence competitive binding assay, OBP11 (SfurOBP11; ligand concentration 4, replicate 3): 27262 | Fluorescence intensity, fluorescence competitive binding assay, OBP11 (SfurOBP11; ligand concentration 6, replicate 1): 26264 | Fluorescence intensity, fluorescence competitive binding assay, OBP11 (SfurOBP11; ligand concentration 6, replicate 2): 26035 | Fluorescence intensity, fluorescence competitive binding assay, OBP11 (SfurOBP11; ligand concentration 6, replicate 3): 26502 | Fluorescence intensity, fluorescence competitive binding assay, OBP11 (SfurOBP11; ligand concentration 8, replicate 1): 25045 | Fluorescence intensity, fluorescence competitive binding assay, OBP11 (SfurOBP11; ligand concentration 8, replicate 2): 25714 | Fluorescence intensity, fluorescence competitive binding assay, OBP11 (SfurOBP11; ligand concentration 8, replicate 3): 24376 | Fluorescence intensity, fluorescence competitive binding assay, OBP11 (SfurOBP11; ligand concentration 10, replicate 1): 24885 | Fluorescence intensity, fluorescence competitive binding assay, OBP11 (SfurOBP11; ligand concentration 10, replicate 2): 24226 | Fluorescence intensity, fluorescence competitive binding assay, OBP11 (SfurOBP11; ligand concentration 10, replicate 3): 23566 | Fluorescence intensity, fluorescence competitive binding assay, OBP11 (SfurOBP11; ligand concentration 12, replicate 1): 21957 | Fluorescence intensity, fluorescence competitive binding assay, OBP11 (SfurOBP11; ligand concentration 12, replicate 2): 22135 | Fluorescence intensity, fluorescence competitive binding assay, OBP11 (SfurOBP11; ligand concentration 12, replicate 3): 20925 | Fluorescence intensity, fluorescence competitive binding assay, OBP11 (SfurOBP11; ligand concentration 14, replicate 1): 23062 | Fluorescence intensity, fluorescence competitive binding assay, OBP11 (SfurOBP11; ligand concentration 14, replicate 2): 21821 | Fluorescence intensity, fluorescence competitive binding assay, OBP11 (SfurOBP11; ligand concentration 14, replicate 3): 20452 | Fluorescence intensity, fluorescence competitive binding assay, OBP11 (SfurOBP11; ligand concentration 16, replicate 1): 19007 | Fluorescence intensity, fluorescence competitive binding assay, OBP11 (SfurOBP11; ligand concentration 16, replicate 2): 19354 | Fluorescence intensity, fluorescence competitive binding assay, OBP11 (SfurOBP11; ligand concentration 16, replicate 3): 17450 | Fluorescence intensity, fluorescence competitive binding assay, OBP11 (SfurOBP11; ligand concentration 18, replicate 1): 21957 | Fluorescence intensity, fluorescence competitive binding assay, OBP11 (SfurOBP11; ligand concentration 18, replicate 2): 23680 | Fluorescence intensity, fluorescence competitive binding assay, OBP11 (SfurOBP11; ligand concentration 18, replicate 3): 21455 | Fluorescence intensity, fluorescence competitive binding assay, OBP11 (SfurOBP11; ligand concentration 20, replicate 1): 23354 | Fluorescence intensity, fluorescence competitive binding assay, OBP11 (SfurOBP11; ligand concentration 20, replicate 2): 26458 | Fluorescence intensity, fluorescence competitive binding assay, OBP11 (SfurOBP11; ligand concentration 20, replicate 3): 24921 | pIC50 (SfurOBP2; SfurOBP2, protein and 1-NPN both 2.0 µM, competitor 2-20 µM, read-out: IC50): < 4.70 | Fluorescence competitive binding assay, OBP2 (raw fluorescence reading) (SfurOBP2; ligand concentration 2 (unit not given), replicate column 1 of 3): 18213 | Fluorescence competitive binding assay, OBP2 (raw fluorescence reading) (SfurOBP2; ligand concentration 2 (unit not given), replicate column 2 of 3): 17695 | Fluorescence competitive binding assay, OBP2 (raw fluorescence reading) (SfurOBP2; ligand concentration 2 (unit not given), replicate column 3 of 3): 18887 | Fluorescence competitive binding assay, OBP2 (raw fluorescence reading) (SfurOBP2; ligand concentration 4 (unit not given), replicate column 1 of 3): 18465 | Fluorescence competitive binding assay, OBP2 (raw fluorescence reading) (SfurOBP2; ligand concentration 4 (unit not given), replicate column 2 of 3): 18805 | Fluorescence competitive binding assay, OBP2 (raw fluorescence reading) (SfurOBP2; ligand concentration 4 (unit not given), replicate column 3 of 3): 18729 | Fluorescence competitive binding assay, OBP2 (raw fluorescence reading) (SfurOBP2; ligand concentration 6 (unit not given), replicate column 1 of 3): 17576 | Fluorescence competitive binding assay, OBP2 (raw fluorescence reading) (SfurOBP2; ligand concentration 6 (unit not given), replicate column 2 of 3): 17836 | Fluorescence competitive binding assay, OBP2 (raw fluorescence reading) (SfurOBP2; ligand concentration 6 (unit not given), replicate column 3 of 3): 18066 | Fluorescence competitive binding assay, OBP2 (raw fluorescence reading) (SfurOBP2; ligand concentration 8 (unit not given), replicate column 1 of 3): 15752 | Fluorescence competitive binding assay, OBP2 (raw fluorescence reading) (SfurOBP2; ligand concentration 8 (unit not given), replicate column 2 of 3): 18865 | Fluorescence competitive binding assay, OBP2 (raw fluorescence reading) (SfurOBP2; ligand concentration 8 (unit not given), replicate column 3 of 3): 17007 | Fluorescence competitive binding assay, OBP2 (raw fluorescence reading) (SfurOBP2; ligand concentration 10 (unit not given), replicate column 1 of 3): 16925 | Fluorescence competitive binding assay, OBP2 (raw fluorescence reading) (SfurOBP2; ligand concentration 10 (unit not given), replicate column 2 of 3): 17786 | Fluorescence competitive binding assay, OBP2 (raw fluorescence reading) (SfurOBP2; ligand concentration 10 (unit not given), replicate column 3 of 3): 17356 | Fluorescence competitive binding assay, OBP2 (raw fluorescence reading) (SfurOBP2; ligand concentration 12 (unit not given), replicate column 1 of 3): 16049 | Fluorescence competitive binding assay, OBP2 (raw fluorescence reading) (SfurOBP2; ligand concentration 12 (unit not given), replicate column 2 of 3): 16437 | Fluorescence competitive binding assay, OBP2 (raw fluorescence reading) (SfurOBP2; ligand concentration 12 (unit not given), replicate column 3 of 3): 16824 | Fluorescence competitive binding assay, OBP2 (raw fluorescence reading) (SfurOBP2; ligand concentration 14 (unit not given), replicate column 1 of 3): 15270 | Fluorescence competitive binding assay, OBP2 (raw fluorescence reading) (SfurOBP2; ligand concentration 14 (unit not given), replicate column 2 of 3): 15647 | Fluorescence competitive binding assay, OBP2 (raw fluorescence reading) (SfurOBP2; ligand concentration 14 (unit not given), replicate column 3 of 3): 14905 | Fluorescence competitive binding assay, OBP2 (raw fluorescence reading) (SfurOBP2; ligand concentration 16 (unit not given), replicate column 1 of 3): 15319 | Fluorescence competitive binding assay, OBP2 (raw fluorescence reading) (SfurOBP2; ligand concentration 16 (unit not given), replicate column 2 of 3): 14300 | Fluorescence competitive binding assay, OBP2 (raw fluorescence reading) (SfurOBP2; ligand concentration 16 (unit not given), replicate column 3 of 3): 16123 | Fluorescence competitive binding assay, OBP2 (raw fluorescence reading) (SfurOBP2; ligand concentration 18 (unit not given), replicate column 1 of 3): 15075 | Fluorescence competitive binding assay, OBP2 (raw fluorescence reading) (SfurOBP2; ligand concentration 18 (unit not given), replicate column 2 of 3): 15152 | Fluorescence competitive binding assay, OBP2 (raw fluorescence reading) (SfurOBP2; ligand concentration 18 (unit not given), replicate column 3 of 3): 15228 | Fluorescence competitive binding assay, OBP2 (raw fluorescence reading) (SfurOBP2; ligand concentration 20 (unit not given), replicate column 1 of 3): 14131 | Fluorescence competitive binding assay, OBP2 (raw fluorescence reading) (SfurOBP2; ligand concentration 20 (unit not given), replicate column 2 of 3): 14026 | Fluorescence competitive binding assay, OBP2 (raw fluorescence reading) (SfurOBP2; ligand concentration 20 (unit not given), replicate column 3 of 3): 13920 | Fluorescence competitive binding assay, fluorescence intensity (SfurOBP3; ligand concentration 2): 34223 and 34200 and 33767 | Fluorescence competitive binding assay, fluorescence intensity (SfurOBP3; ligand concentration 4): 34565 and 34966 and 35111 | Fluorescence competitive binding assay, fluorescence intensity (SfurOBP3; ligand concentration 6): 33473 and 32986 and 33557 | Fluorescence competitive binding assay, fluorescence intensity (SfurOBP3; ligand concentration 8): 31804 and 31815 and 33904 | Fluorescence competitive binding assay, fluorescence intensity (SfurOBP3; ligand concentration 10): 31933 and 33856 and 32393 | Fluorescence competitive binding assay, fluorescence intensity (SfurOBP3; ligand concentration 12): 28357 and 30958 and 31303 | Fluorescence competitive binding assay, fluorescence intensity (SfurOBP3; ligand concentration 14): 30291 and 29441 and 31149 | Fluorescence competitive binding assay, fluorescence intensity (SfurOBP3; ligand concentration 16): 26096 and 27512 and 26789 | Fluorescence competitive binding assay, fluorescence intensity (SfurOBP3; ligand concentration 18): 36577 and 32045 and 32081 | Fluorescence competitive binding assay, fluorescence intensity (SfurOBP3; ligand concentration 20): 29304 and 29350 and 25941 | binding affinity to SfurOBP3 (in words) (SfurOBP3; SfurOBP3): high binding affinities | pIC50 (SfurOBP3; SfurOBP3, protein and 1-NPN both 2.0 µM, competitor 2-20 µM, read-out: IC50): 4.76
Compound: CC(=O)c1ccccc1 [acetophenone]
behavioral response of S. furcifera (in words) (S. furcifera adults): strongly attracted | number of insects choosing hexane arm (S. furcifera adults; adults): 11 | number of insects choosing volatilies arm (S. furcifera adults; adults): 20 | number of insects failed (no choice) (S. furcifera adults; adults): 9
